One test concerns the target T1, human TLR8 (Homo sapiens, UniProt Q9NR97).
T1 construct: host or cells: HEK293 (HEK-BLUE-hTLR8)
T1 sequence (Q9NR97 27-1041): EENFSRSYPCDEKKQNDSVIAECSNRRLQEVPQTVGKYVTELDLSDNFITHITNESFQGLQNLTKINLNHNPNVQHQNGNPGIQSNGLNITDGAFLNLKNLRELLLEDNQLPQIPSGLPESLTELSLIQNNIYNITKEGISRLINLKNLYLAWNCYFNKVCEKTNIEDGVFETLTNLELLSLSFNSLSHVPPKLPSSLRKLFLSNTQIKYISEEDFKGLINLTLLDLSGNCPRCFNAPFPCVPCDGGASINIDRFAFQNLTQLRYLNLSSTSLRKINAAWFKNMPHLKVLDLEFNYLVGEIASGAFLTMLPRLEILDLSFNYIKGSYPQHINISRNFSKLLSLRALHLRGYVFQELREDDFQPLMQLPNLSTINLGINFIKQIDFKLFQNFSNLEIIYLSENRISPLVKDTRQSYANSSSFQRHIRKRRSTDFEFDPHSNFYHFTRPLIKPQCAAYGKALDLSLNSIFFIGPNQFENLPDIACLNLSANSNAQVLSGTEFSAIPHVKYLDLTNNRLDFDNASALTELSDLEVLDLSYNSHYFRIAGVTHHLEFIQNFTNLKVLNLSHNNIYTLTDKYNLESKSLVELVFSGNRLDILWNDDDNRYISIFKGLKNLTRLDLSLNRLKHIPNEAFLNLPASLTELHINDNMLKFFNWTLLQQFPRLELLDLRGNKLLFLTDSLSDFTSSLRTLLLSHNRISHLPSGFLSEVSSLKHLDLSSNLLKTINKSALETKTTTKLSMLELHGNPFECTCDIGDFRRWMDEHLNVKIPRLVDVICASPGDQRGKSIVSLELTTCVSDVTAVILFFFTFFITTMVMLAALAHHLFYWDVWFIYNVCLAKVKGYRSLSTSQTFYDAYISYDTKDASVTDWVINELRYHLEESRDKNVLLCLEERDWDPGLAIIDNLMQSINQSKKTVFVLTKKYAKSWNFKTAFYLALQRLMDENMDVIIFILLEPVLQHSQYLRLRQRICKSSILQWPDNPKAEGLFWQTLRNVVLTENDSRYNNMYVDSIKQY
Description: TLR activation, HEK-BLUE-hTLR8 SEAP reporter cells. It is filed as cell-based. The following applies: 16-20 hours, SEAP response at least 2× vehicle control, tested 0.01-30 micromolar. As to the method:
(§1) HEK-BLUE-hTLR7 or hTLR8 reporter cells were obtained from InvivoGen, San Diego, CA. According to the manufacturer's description, these reporter cells were prepared by co-transfection of HEK293 cells with an inducible secreted embryonic alkaline phosphatase (SEAP) reporter gene and either the human TLR7 or TLR8 gene. The SEAP reporter gene was placed under the control of an IFN−β minimal promoter fused to five NF-κB and AP-1-binding sites. In the presence of a TLR ligand, activation of NF-κB and AP-1 occurs, resulting in a corresponding increase in SEAP levels.
(§2) In the assay, the HEK cells were grown and maintained using standard cell culture techniques in a growth medium that contained Dulbecco's Modified Eagle Medium (ThermoFisher Scientific Incorporated, Waltham, MA) supplemented with 1% penicillin/streptomycin and 10% heat-inactivated Gibco fetal bovine serum (ThermoFisher Scientific). Each compound was solubilized in DMSO to create a 3 mM stock solution. The stock solution was then further diluted with the growth medium to prepare serial dilutions. Each test compound was tested at a concentration of 30, 10, 3.3, 1.1, 0.37, 0.12, 0.04, and 0.01 micromolar using a 96-well format with 5×10^4 cells and 200 microliters of growth medium per well.
(§3) For each compound, hTLR7, hTLR8, and their respective null control HEK cells were screened. DMSO serially diluted into the growth medium served as the vehicle control. Cell culture supernatants containing the SEAP reporter were collected after an incubation period of 16-20 hours in a cell culture incubator (37° C. and 5% CO2), and either analyzed immediately or stored at −80° C. SEAP levels were measured using the colorimetric enzyme assay (QUANTI-BLUE (InvivoGen) according to manufacturer's instructions.
(§4) Specifically, the minimum effective concentration of each compound (micromolar) was determined as the lowest concentration of the compound that produced a SEAP expression response at least 2× greater than that observed with the vehicle control wells.

In another test the target is T2, human TLR7 (Homo sapiens, UniProt Q9NYK1).
T2 construct: host or cells: HEK293 (HEK-BLUE-hTLR7)
T2 sequence (Q9NYK1 27-1049): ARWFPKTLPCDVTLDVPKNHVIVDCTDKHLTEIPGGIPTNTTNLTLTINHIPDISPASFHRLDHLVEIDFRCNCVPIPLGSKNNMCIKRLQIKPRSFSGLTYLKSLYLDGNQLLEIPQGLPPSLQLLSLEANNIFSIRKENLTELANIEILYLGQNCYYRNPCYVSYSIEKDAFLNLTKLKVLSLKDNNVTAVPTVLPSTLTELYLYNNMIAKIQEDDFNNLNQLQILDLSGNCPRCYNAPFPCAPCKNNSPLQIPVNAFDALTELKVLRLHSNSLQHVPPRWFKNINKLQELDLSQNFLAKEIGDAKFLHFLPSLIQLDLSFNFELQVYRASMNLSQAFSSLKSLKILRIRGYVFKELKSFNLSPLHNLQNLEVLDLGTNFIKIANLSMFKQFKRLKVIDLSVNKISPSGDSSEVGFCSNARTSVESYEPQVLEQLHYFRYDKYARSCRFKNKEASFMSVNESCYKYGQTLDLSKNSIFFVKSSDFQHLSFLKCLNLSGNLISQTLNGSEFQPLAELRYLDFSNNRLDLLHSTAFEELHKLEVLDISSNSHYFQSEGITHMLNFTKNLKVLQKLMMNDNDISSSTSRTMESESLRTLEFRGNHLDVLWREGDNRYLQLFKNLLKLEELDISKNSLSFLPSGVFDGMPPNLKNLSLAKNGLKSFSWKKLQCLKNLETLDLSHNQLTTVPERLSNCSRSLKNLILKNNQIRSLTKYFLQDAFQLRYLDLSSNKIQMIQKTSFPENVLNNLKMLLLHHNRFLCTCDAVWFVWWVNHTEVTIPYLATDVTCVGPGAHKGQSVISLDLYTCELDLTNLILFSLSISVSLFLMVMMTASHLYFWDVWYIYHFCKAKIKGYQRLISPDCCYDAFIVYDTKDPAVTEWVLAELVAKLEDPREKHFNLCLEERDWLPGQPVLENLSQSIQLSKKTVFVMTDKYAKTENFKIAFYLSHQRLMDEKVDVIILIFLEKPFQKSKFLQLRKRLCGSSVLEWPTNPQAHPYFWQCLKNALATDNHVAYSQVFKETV
Description: TLR activation, HEK-BLUE-hTLR7 SEAP reporter cells. The format is cell-based. The following applies: 16-20 hours, SEAP response at least 2× vehicle control, tested 0.01-30 micromolar. As to the method: as §1, §2, §3, §4

As for `CCOC[C@@H](n1cnc2c(N)nc3ccccc3c21)C1(O)CCCC1` [Example 14, 1-[(1R)-1-(4-aminoimidazo[4,5-c]quinolin-1-yl)-2-ethoxy-ethyl]cyclopentanol], at human TLR8, the “MEC to Produce TLR Activation TLR 8” value amounted to 30 µM. Moreover, on human TLR7, the “MEC to Produce TLR Activation TLR 7” value is 0.04 µM.

(Values after patent publication US12540137B2, “N-1 branched alkyl ether substituted imidazo[4,5-c]quinoline compounds, compositions, and methods” (Solventum Intellectual Properties Company, priority 2018, dated 2026).)
